Starred links: 1 amine or outer side, 2 acyl side, 3 side chain; linkers in the order of their positions; H or OH if unused. Non-standard residues stand in square brackets, D forms with d. Residues, ends and D or L forms follow the SMILES beside them. Groups on a side chain read outwards from the residue. *: point of attachment. C20 diacid = O=C(O)CCCCCCCCCCCCCCCCCCC(=O)*; C18 diacid = O=C(O)CCCCCCCCCCCCCCCCC(=O)*; C16 diacid = O=C(O)CCCCCCCCCCCCCCC(=O)*; γGlu = O=C(O)[C@H](CCC(=O)[*:2])N[*:1]; Glutaryl = O=C(CCCC(=O)[*:2])[*:1]; Nle = CCCC[C@H](N)C(=O)O; AEEA = NCCOCCOCC(=O)O; Aib = CC(C)(N)C(=O)O
How the values were obtained:
[1] = Solubility by visual inspection of peptide solutions; format: physicochemical
Procedure: (§1) Peptides were either dissolved in sodium phosphate buffer (50 mM, pH 7.4, filtered) or dissolved in ultrapure (MilliQ) water (adjusted to pH 7.4 with NaOH, filtered) (see Table 3). All peptide samples were prepared to a concentration of 1, 5, 7.5 or 15 mg/ml. All samples, with the exception of reference peptides GIP(3-30), AT158, and AT482 dissolved readily and produced clear and colorless solutions with gentle mixing. Peptide samples were subsequently filtered through 0.22 μm nylon filters (Q-Max® RR syringe filter, 13 mm, Frisenette, DK) to produce particle-free solutions. All samples were added to a 96-well plate reader for the ThT assay at t=0.
Clear visual appearance may be taken as an indicator of the immediate solubility of the peptide. […] Thus, A13Aib and/or N24E substitutions appear to increase solubility.

[2] = Physical stability: fibril formation in Thioflavin T (ThT) assay with agitation; format: physicochemical; conditions: 25° C., agitation
Procedure: Continuous measurement of the fluorescence emission at 486 nm can be used as a measure of fibrillation behavior of peptides and proteins. The time until onset of fibrillation or fibrillation lag time is estimated here by defining the lag time (Tlag) as the point in time where the signal relative to the pre-transition baseline has reached 10% of the post-transition baseline.
50 mM sodium phosphate buffer for dissolving some samples was prepared in ultrapure water (Milli-Q® Reference A+ System, Merck) with a resistivity of 18.2 MΩ·cm. The buffer was adjusted to pH 7.4 and filtered.
The ultrapure water (MilliQ) for dissolving some samples was adjusted to pH 7.4 with NaOH and filtered prior to sample preparation.
as §1
For each sample, […] ThT (1 mM) was added to 1.2 mL peptide solution. From this sample mixture, an amount of 200 uL/well was pipetted into four or five wells (n=4 or 5). Blank samples (buffer+ThT) were also included. One 3 mm silica bead was added to each well containing samples and the plate was subjected to orbital rotation at 300 rpm to agitate and stress the samples. The temperature was kept at 25° C. throughout the measurement.

Structure (SMILES) | Visual appearance ([1]; 1 mg/ml, TFA, Phosphate (7.4)) | Avr lag time ([2]; 1 mg/ml, TFA, Phosphate (7.4)) | Visual appearance ([1]; 5 mg/ml, TFA, MilliQ) | Avr lag time (h) ([2]; 1 mg/ml, TFA, Phosphate (7.4)) | Avr lag time (h) ([2]; 5 mg/ml, TFA, MilliQ) | Visual appearance ([1]; 7.5 mg/ml, Na, MilliQ (8)) | Visual appearance ([1]; 15 mg/ml, Na, MilliQ (8)) | Avr lag time (h) ([2]; 7.5 mg/ml, Na, MilliQ (8)) | Avr lag time (h) ([2]; 15 mg/ml, Na, MilliQ (8))
CC[C@H](C)[C@H](NC(=O)[C@H](CO)NC(=O)[C@H](Cc1ccc(O)cc1)NC(=O)[C@H](CC(=O)O)NC(=O)[C@H](CO)NC(=O)[C@@H](NC(=O)[C@H](Cc1ccccc1)NC(=O)[C@@H](NC(=O)CNC(=O)[C@@H](N)CCC(=O)O)[C@@H](C)O)[C@@H](C)CC)C(=O)N[C@@H](C)C(=O)N[C@@H](CCSC)C(=O)N[C@@H](CC(=O)O)C(=O)N[C@@H](CCCCN)C(=O)N[C@H](C(=O)N[C@@H](CCCCNC(=O)CCCCCCCCCCCCCCC(=O)O)C(=O)N[C@@H](CCC(N)=O)C(=O)N[C@@H](CCC(N)=O)C(=O)N[C@@H](C)C(=O)N[C@@H](Cc1ccccc1)C(=O)N[C@H](C(=O)N[C@@H](CCC(=O)O)C(=O)N[C@@H](Cc1c[nH]c2ccccc12)C(=O)N[C@@H](CC(C)C)C(=O)N[C@@H](CC(C)C)C(=O)N[C@@H](C)C(=O)N[C@@H](CCC(N)=O)C(=O)N[C@@H](CCCCN)C(=O)N1CCC[C@H]1C(=O)N[C@@H](CO)C(=O)N[C@@H](CO)C(=O)NCC(=O)N[C@@H](C)C(=O)N1CCC[C@H]1C(=O)N1CCC[C@H]1C(=O)N1CCC[C@H]1C(=O)N[C@@H](CO)C(=O)O)C(C)C)[C@@H](C)CC [AT745] (H-EGTFISDYSIAMDKIK(C16 diacid)QQAFVEWLLAQKPSSGAPPPS-OH; N-terminus assumed) | Clear | <24 h | – | – | – | – | – | – | –
CC[C@H](C)[C@H](NC(=O)[C@H](CCCCN)NC(=O)[C@H](CC(=O)O)NC(=O)[C@H](CCSC)NC(=O)C(C)(C)NC(=O)[C@@H](NC(=O)[C@H](CO)NC(=O)[C@H](Cc1ccc(O)cc1)NC(=O)[C@H](CC(=O)O)NC(=O)[C@H](CO)NC(=O)[C@@H](NC(=O)[C@H](Cc1ccccc1)NC(=O)[C@@H](NC(=O)CNC(=O)[C@@H](N)CCC(=O)O)[C@@H](C)O)[C@@H](C)CC)[C@@H](C)CC)C(=O)N[C@@H](CCCCNC(=O)CCCCCCCCCCCCCCC(=O)O)C(=O)N[C@@H](CCC(N)=O)C(=O)N[C@@H](CCC(N)=O)C(=O)N[C@@H](CC(=O)O)C(=O)N[C@@H](Cc1ccccc1)C(=O)N[C@H](C(=O)N[C@@H](CC(N)=O)C(=O)N[C@@H](Cc1c[nH]c2ccccc12)C(=O)N[C@@H](CC(C)C)C(=O)N[C@@H](CC(C)C)C(=O)N[C@@H](C)C(=O)N[C@@H](CCC(N)=O)C(=O)N[C@@H](CCCCN)C(=O)N1CCC[C@H]1C(=O)N[C@@H](CO)C(=O)N[C@@H](CO)C(=O)NCC(=O)N[C@@H](C)C(=O)N1CCC[C@H]1C(=O)N1CCC[C@H]1C(=O)N1CCC[C@H]1C(=O)N[C@@H](CO)C(=O)O)C(C)C [AT760] (H-EGTFISDYSI[Aib]MDKIK(C16 diacid)QQDFVNWLLAQKPSSGAPPPS-OH; N-terminus assumed) | Clear | – | Clear | fnd (Fnd = fibrils not detected within experiment time (96 hours) with agitation.) | fnd (Fnd = fibrils not detected within experiment time (96 hours) with agitation.) | – | – | – | –
CC[C@H](C)[C@H](NC(=O)[C@H](CCCCN)NC(=O)[C@H](CCC(=O)O)NC(=O)[C@H](CC(C)C)NC(=O)C(C)(C)NC(=O)[C@@H](NC(=O)[C@H](CO)NC(=O)[C@H](Cc1ccc(O)cc1)NC(=O)[C@H](CCC(=O)O)NC(=O)[C@H](CO)NC(=O)[C@@H](NC(=O)[C@H](Cc1ccccc1)NC(=O)[C@@H](NC(=O)CNC(=O)[C@@H](N)CCC(=O)O)[C@@H](C)O)[C@@H](C)CC)[C@@H](C)CC)C(=O)N[C@@H](CCCCNC(=O)COCCOCCNC(=O)COCCOCCNC(=O)CC[C@H](NC(=O)CCCCCCCCCCCCCCCCC(=O)O)C(=O)O)C(=O)N[C@@H](CCC(N)=O)C(=O)N[C@@H](CCC(N)=O)C(=O)N[C@@H](CCC(=O)O)C(=O)N[C@@H](Cc1ccccc1)C(=O)N[C@H](C(=O)N[C@@H](CCC(=O)O)C(=O)N[C@@H](Cc1c[nH]c2ccccc12)C(=O)N[C@@H](CC(C)C)C(=O)N[C@@H](CC(C)C)C(=O)N[C@@H](C)C(=O)N[C@@H](CCC(N)=O)C(=O)N[C@@H](CCCCN)C(=O)N1CCC[C@H]1C(=O)N[C@@H](CO)C(=O)N[C@@H](CO)C(=O)NCC(=O)N[C@@H](C)C(=O)N1CCC[C@H]1C(=O)N1CCC[C@H]1C(=O)N1CCC[C@H]1C(=O)N[C@@H](CO)C(N)=O)C(C)C [AT714] (H-EGTFISEYSI[Aib]LEKIK([AEEA-AEEA-γGlu-C18 diacid])QQEFVEWLLAQKPSSGAPPPS-NH2; N-terminus assumed) | Clear | – | – | fnd (Fnd = fibrils not detected within experiment time (96 hours) with agitation.) | – | – | – | – | –
CCCC[C@H](NC(=O)C(C)(C)NC(=O)[C@@H](NC(=O)[C@H](CO)NC(=O)[C@H](Cc1ccc(O)cc1)NC(=O)[C@H](CCC(=O)O)NC(=O)[C@H](CO)NC(=O)[C@@H](NC(=O)[C@H](Cc1ccccc1)NC(=O)[C@@H](NC(=O)CNC(=O)CCCC(=O)O)[C@@H](C)O)[C@@H](C)CC)[C@@H](C)CC)C(=O)N[C@@H](CCC(=O)O)C(=O)N[C@@H](CCCCN)C(=O)N[C@H](C(=O)N[C@@H](CCCCNC(=O)COCCOCCNC(=O)COCCOCCNC(=O)CC[C@H](NC(=O)CCCCCCCCCCCCCCCCC(=O)O)C(=O)O)C(=O)N[C@@H](CCC(N)=O)C(=O)N[C@@H](CCC(N)=O)C(=O)N[C@@H](CCC(=O)O)C(=O)N[C@@H](Cc1ccccc1)C(=O)N[C@H](C(=O)N[C@@H](CCC(=O)O)C(=O)N[C@@H](Cc1c[nH]c2ccccc12)C(=O)N[C@@H](CC(C)C)C(=O)N[C@@H](CC(C)C)C(=O)N[C@@H](C)C(=O)N[C@@H](CCC(N)=O)C(=O)N[C@@H](CCCCN)C(=O)N1CCC[C@H]1C(=O)N[C@@H](CO)C(=O)N[C@@H](CO)C(=O)NCC(=O)N[C@@H](C)C(=O)N1CCC[C@H]1C(=O)N1CCC[C@H]1C(=O)N1CCC[C@H]1C(=O)N[C@@H](CO)C(=O)O)C(C)C)[C@@H](C)CC [AT706] (Glutaryl-GTFISEYSI[Aib][Nle]EKIK([AEEA-AEEA-γGlu-C18 diacid])QQEFVEWLLAQKPSSGAPPPS-OH) | Clear | – | – | fnd (Fnd = fibrils not detected within experiment time (96 hours) with agitation.) | – | Clear | Clear | fnd (Fnd = fibrils not detected within experiment time (96 hours) with agitation.) | fnd (Fnd = fibrils not detected within experiment time (96 hours) with agitation.)
CC[C@H](C)[C@H](NC(=O)[C@H](CO)NC(=O)[C@H](Cc1ccc(O)cc1)NC(=O)[C@H](CC(=O)O)NC(=O)[C@H](CO)NC(=O)[C@@H](NC(=O)[C@H](Cc1ccccc1)NC(=O)[C@@H](NC(=O)CNC(=O)[C@@H](N)CCC(=O)O)[C@@H](C)O)[C@@H](C)CC)C(=O)N[C@@H](C)C(=O)N[C@@H](CCSC)C(=O)N[C@@H](CC(=O)O)C(=O)N[C@@H](CCCCN)C(=O)N[C@H](C(=O)N[C@@H](CCCCNC(=O)CCCCCCCCCCCCCCCCCCC(=O)O)C(=O)N[C@@H](CCC(N)=O)C(=O)N[C@@H](CCC(N)=O)C(=O)N[C@@H](CC(=O)O)C(=O)N[C@@H](Cc1ccccc1)C(=O)N[C@H](C(=O)N[C@@H](CCC(=O)O)C(=O)N[C@@H](Cc1c[nH]c2ccccc12)C(=O)N[C@@H](CC(C)C)C(=O)N[C@@H](CC(C)C)C(=O)N[C@@H](C)C(=O)N[C@@H](CCC(N)=O)C(=O)N[C@@H](CCCCN)C(=O)N1CCC[C@H]1C(=O)N[C@@H](CO)C(=O)N[C@@H](CO)C(=O)NCC(=O)N[C@@H](C)C(=O)N1CCC[C@H]1C(=O)N1CCC[C@H]1C(=O)N1CCC[C@H]1C(=O)N[C@@H](CO)C(=O)O)C(C)C)[C@@H](C)CC [AT750] (H-EGTFISDYSIAMDKIK(C20 diacid)QQDFVEWLLAQKPSSGAPPPS-OH; N-terminus assumed) | Clear | – | – | fnd (Fnd = fibrils not detected within experiment time (96 hours) with agitation.) | – | – | – | – | –
